Read-outs that look alike come from different tables or passages of the source. Bounds are passed on as bounds.

In one data set the test system is DENV4. The experiment in a line: microbe, parasite or virus in culture. It counts as cell-based. The settings on record: Dengue virus, DENV4, 120 h; BHK-21 cells, five days, MTT.
The next data set has as its system HCoV-229E and HCoV-OC43. The experiment in a line: Library screening for suppression of cell death of cells infected by a human coronavirus. It is filed as cell-based. As for the experimental part:
HCoV-229E (ATCC: VR-740) and HCoV-OC43 (ATCC: VR-1558) obtained from the ATCC were used as coronaviruses that routinely infect humans (human coronaviruses: HCoV).
(§1) In the following tests, culture-cell strain MRC5 cells from the lungs of a human fetus or culture-cell strain Caco-2 cells from a human colon carcinoma were infected using the viruses. For both cell types, 2% FBS/MEM was used as a culture medium. The 2% FBS/MEM was prepared by adding 2% FBS (fetal bovine serum; made by Gibco) and L-glutamine (made by Wako) to MEM (Minimum Essential Medium; made by Nissui).
HCoV-229E and HCoV-OC43 were used as the human coronavirus.

In data set [1] the test system is YFV. Description: microbe, parasite or virus in culture. It is filed as cell-based. The following applies: Yellow fever virus, BHK-21, 72 h, read-out: EC50 YFV.
The test system of another data set is JEV. Description: microbe, parasite or virus in culture. It is filed as cell-based. The following applies: Japanese encephalitis virus, 72 h; BHK-21 cells, three days, MTT.
The subject of data set [2] is HCoV-229E.
The test system of a further data set is WNV. The experiment in a line: microbe, parasite or virus in culture. It counts as cell-based. The settings on record: West Nile virus, 72 h; BHK-21 cells, three days, MTT.
Data set [3] has as its system SARS-CoV-2. The experiment in a line: Viral-RNA replication suppression in infected Caco-2 cells (qRT-PCR). The settings on record: for EC50: Severe acute respiratory syndrome coronavirus 2, Caco-2, 48 h, read-out: SARS-CoV-2 EC50. In general terms: Quantitative PCR measures a nucleic acid by following its amplification.
Data set [4] deals with HCoV-OC43.
The test system of the next data set is Caco-2 cells. The settings on record: for concentration at which mild cytotoxicity, not to an extent of cell extinction, was observed: human; for cytotoxicity by microscopic observation: Caco-2 cells infected with SARS-CoV-2.
A further data set deals with DENV3. The experiment in a line: microbe, parasite or virus in culture. It is filed as cell-based. The settings on record: Dengue virus, DENV3, 120 h; BHK-21 cells, five days, MTT.
The subject of data set [5] is HCoV-229E. The experiment in a line: Cell-death suppression effect in coronavirus-infected cells (resazurin). The settings on record: for EC50: read-out: HCoV-229E EC50 (50% cell death inhibition concentration). (In general: Resazurin is reduced to fluorescent resorufin, in cell work by metabolically active cells.)
In a further data set the test system is DENV1. The experiment in a line: microbe, parasite or virus in culture. The following applies: Dengue virus, DENV1, 120 h; BHK-21 cells, five days, MTT. It is filed as cell-based.
The subject of another data set is DENV2. The experiment in a line: microbe, parasite or virus in culture. The settings on record: Dengue virus, DENV2, 96 h; BHK-21 cells, four days, MTT. It counts as cell-based.
Data set [6] concerns HCoV-OC43. Description: Cell-death suppression effect in coronavirus-infected cells (resazurin). The settings on record: for EC50: read-out: HCoV-0C43 EC50 (50% cell death inhibition concentration).
Data set [7] in a line: Cytotoxicity CC50 (Table 1). It counts as cell-based, human. The settings on record: human, MRC5 cells. Here is the method: as §1
(§2) Moreover, from values of EC50 and CC50, SI (CC50/EC50) was calculated.

The next data set has as its system ZIKV. The experiment in a line: microbe, parasite or virus in culture. It counts as cell-based. The settings on record: Zika virus, 72 h; BHK-21 cells, three days, MTT.
In data set [8] the test system is SARS-CoV-2. The experiment in a line: Time-of-addition test in infected Caco-2 cells (viral RNA, TCID50 titration). It is filed as cell-based. The settings on record: 1 μM, treatment timing Whole and Post-Entry.
The test system of the next data set is MRC5 cells. Description: Cytotoxicity CC50 (Table 1). It is filed as cell-based, human. As for the experimental part: as §1, §2
Data set [9] concerns YFV. The settings on record: non-patent literature 5; read-out: antiviral activity (EC50) against YFV; cited from earlier work.

On to `Nc1ncnc2c1ccn2[C@@H]1O[C@H](CO)[C@@H](O)[C@H]1O` [HUP1136, tubercidin], for which the EC50 with DENV4 was greater than 16 µM; in the data set on YFV [1], 150 nM; with JEV it was less than 0.13 µM; with WNV, 200 nM; in the data set with SARS-CoV-2 [3], 87 nM; in the data set on DENV3, less than 125 nM. The EC50 in the data set with HCoV-229E [5] (Human coronavirus 229E, 72 h) is less than 78 nM; in the data set with DENV1 it was greater than 16 µM. Further, the “antiviral activity (suppressing cell death of infected cells) in library screening” value (from here on “antiviral activity”) with HCoV-229E and HCoV-OC43 is listed as “had antiviral activity”. Besides, the “HCoV-229E SI (CC50/EC50)” value with HCoV-229E [2] is reported as greater than 8.5. In addition, the “HCoV-0C43 SI (CC50/EC50)” value in the data set with HCoV-OC43 [4] was 5.9. The “concentration at which mild cytotoxicity, not to an extent of cell extinction, was observed” value in the data set on Caco-2 cells was no less than 1.11 µM.
As for `Nc1ncnc2c1c(/C=N\O)cn2[C@@H]1O[C@H](CO)[C@@H](O)[C@H]1O` [HUP1069, 5-formyltubercidin oxime], the EC50 was greater than 16 µM with DENV4; less than 0.13 µM in the data set on JEV; less than 130 nM in the data set with WNV; 200 nM in the data set on SARS-CoV-2 [3]; less than 0.125 µM in the data set with DENV2; 55 nM in the data set with HCoV-OC43 [6] (Betacoronavirus 1, OC43, 72 h). Further, the EC50 with DENV3 was greater than 16000 nM; with HCoV-229E [5] (Human coronavirus 229E, 72 h), less than 78 nM; with DENV1 it was greater than 16 µM. For the same molecule, in the data set with HCoV-229E and HCoV-OC43, the “antiviral activity” value is on record as “had antiviral activity”. For the same molecule, the “HCoV-229E SI (CC50/EC50)” value in the data set with HCoV-229E [2] was greater than 9.5. Also, in the data set on HCoV-OC43 [4], the “HCoV-0C43 SI (CC50/EC50)” value came out at 13.
For orientation: CC50 means the concentration giving 50% cytotoxicity. Turning to `Nc1ncnc2c1c([N+](=O)[O-])cn2[C@@H]1O[C@H](CO)[C@@H](O)[C@H]1O` [HUP1078, 5-nitrotubercidin], in the data set on HCoV-229E and HCoV-OC43 (HCoV-229E and HCoV-OC43), the “antiviral activity” value is given as “had antiviral activity”. The EC50 was 100 nM in the data set on SARS-CoV-2 [3]; greater than 20 µM with DENV2; greater than 10000 nM with HCoV-OC43 [6] (Betacoronavirus 1, OC43, 72 h); 2000 nM with HCoV-229E [5] (Human coronavirus 229E, 72 h). Further, the midpoint of cytotoxicity in data set [7], the CC50, lay at 330 nM. The “concentration at which mild cytotoxicity, not to an extent of cell extinction, was observed” value in the data set on Caco-2 cells is no less than 0.123 µM. Besides, the “HCoV-229E SI (CC50/EC50)” value with HCoV-229E [5] was 0.17.
With `Nc1c2ccn([C@@H]3O[C@H](CO)[C@@H](O)[C@H]3O)c2nc[n+]1[O-]` [HUP1077, tubercidin N-oxide], the EC50 in the data set with DENV4 turned out to be 2.5 µM; in the data set on JEV, 6.9 µM; in the data set on ZIKV, 6.3 µM; with WNV, 10700 nM; in the data set on SARS-CoV-2 [3], 3500 nM; in the data set with DENV3 it was 2300 nM. The EC50 in the data set with HCoV-229E [5] (Human coronavirus 229E, 72 h) is 4000 nM; with DENV1, 3.2 µM. Moreover, the “antiviral activity” value in the data set on HCoV-229E and HCoV-OC43 (HCoV-229E and HCoV-OC43) is “had antiviral activity”. Moreover, the “HCoV-0C43 SI (CC50/EC50)” value with HCoV-OC43 [6] is given as 5.6. Also, the “cytotoxicity by microscopic observation” value in the data set on Caco-2 cells is “concerns regarding cytotoxicity were low”. The “HCoV-229E SI (CC50/EC50)” value in the data set with HCoV-229E [5] is on record as 6.1.
Regarding `CCC(CC)COC(=O)[C@H](C)N[P@](=O)(OC[C@H]1O[C@@](C#N)(c2ccc3c(N)ncnn23)[C@H](O)[C@@H]1O)Oc1ccccc1` [GS-5734, remdesivir, reference compound], in the data set with HCoV-229E [2], the “HCoV-229E SI (CC50/EC50)” value is greater than 694.1. The “HCoV-0C43 SI (CC50/EC50)” value with HCoV-OC43 [4] is greater than 221.1. Besides, the CC50 in data set [7] (read-out: CC50) is greater than 50000 nM. The EC50 worked out at 230 nM in the data set with HCoV-OC43 [6] (Betacoronavirus 1, OC43, 72 h) and 72 nM with HCoV-229E [5] (Human coronavirus 229E, 72 h).
In the case of `Nc1ncnc2c1c(CO)cn2[C@@H]1O[C@H](CO)[C@@H](O)[C@H]1O` [HUP1108, 5-hydroxymethyltubercidin], the “antiviral activity” value in the data set with HCoV-229E and HCoV-OC43 (HCoV-229E and HCoV-OC43) is reported as “had antiviral activity”. Further, the “concentration range in which virus proliferation was suppressed without cytotoxicity” value with SARS-CoV-2 [3] (Caco-2 cells) is “lower than 3.33 μM”. Also, the EC50 in the data set on SARS-CoV-2 [3] was determined as 570 nM. This molecule showed a CC50 in [7] greater than 50000 nM. Further, the “HCoV-0C43 SI (CC50/EC50)” value with HCoV-OC43 [6] is listed as greater than 141. For the same molecule, the EC50 with HCoV-OC43 [6] (Betacoronavirus 1, OC43, 72 h) was 350 nM. In the data set with Caco-2 cells, the “cytotoxicity by microscopic observation” value was “concerns regarding cytotoxicity were low” and the “concentration at which mild cytotoxicity, not to an extent of cell extinction, was observed” value worked out at 10 µM. Further, in the data set on SARS-CoV-2 [8] (Caco-2 cells, 24 hours, FIG. 3), the “relative viral-RNA amount” value is on record as “reduced”. The “viral titer (TCID50)” value in the data set with SARS-CoV-2 [8] (supernatant titrated on VeroE6/TMPRSS2 cells, FIG. 4) is “reduced”. Besides, the “HCoV-229E SI (CC50/EC50)” value in the data set with HCoV-229E [5] is greater than 117.
Regarding `N#Cc1cn([C@@H]2O[C@H](CO)[C@@H](O)[C@H]2O)c2ncnc(N)c12` [HUP1109, 5-cyanotubercidin], in the data set with HCoV-229E and HCoV-OC43, the “antiviral activity” value is recorded as “had antiviral activity”. Moreover, the “HCoV-229E SI (CC50/EC50)” value in the data set with HCoV-229E [2] is given as 0.26. For the same molecule, the EC50 was 200 nM in the data set with SARS-CoV-2 [3]; greater than 20 µM in the data set with DENV2; greater than 10000 nM with HCoV-OC43 [6] (Betacoronavirus 1, OC43, 72 h); 2300 nM in the data set with HCoV-229E [5] (Human coronavirus 229E, 72 h). In data set [7], this molecule returned a CC50 of 590 nM. Besides, the “cytotoxicity by microscopic observation” value in the data set on Caco-2 cells is reported as “strong cytotoxicity”.
The molecule `N#C[C@@]1(c2ccc3c(N)ncnn23)O[C@H](CO)[C@@H](O)[C@H]1O` [GS-441524, reference compound] displayed a CC50 with MRC5 cells greater than 50 µM. Further, the EC50 in the data set with HCoV-OC43 [6] (cultured three days, resazurin) is 3700 nM; with HCoV-229E [5] (cultured three days, resazurin), 3100 nM; with YFV [9], 11 µM.
